Reference: patent US7947854B2, “Bis-cationic compounds and use thereof” (The University of Sydney, priority 2003, dated 2011)
Several values for one entry are separate records, joined by “and”; a condition that tells them apart may be missing. Equal values may be shown once. Read-outs that look alike come from different tables or passages of the source.

What was measured:
Assay type in all cases: cell-based
[1] = test system: Scedosporium prolificans 1-003-040; assay: In vitro antifungal activity, filamentous fungi, NCCLS M38-A; conditions: Lomentospora prolificans, 1003040
Text: (§1) The assay used for filamentous fungi (Aspergillus; Scedosporium; Fusarium) was that published by the National Committee for Clinical Laboratory Standards. 2002. Reference Method for Broth Dilution Antifungal Susceptibility Testing of Filamentous Fungi: Approved Standard. NCCLS document M38-A.Villanova, Pa., USA.

[2] = test system: Aspergillus terreus ATCC 03-232-378; assay: as above; conditions: Aspergillus terreus, ATCC03
Text: as §1

[3] = test system: Aspergillus fumigatus ATCC 204 305; assay: as above; conditions: Aspergillus fumigatus, ATCC204
Text: as §1

[4] = test system: Aspergillus flavus ATCC 204 304; assay: as above; conditions: Aspergillus flavus, ATCC204
Text: as §1

[5] = test system: Scedosporium apiospermum 1-003-056; assay: as above; conditions: Scedosporium apiospermum, 1003056
Text: as §1

[6] = test system: Fusarium solani 04-132-4207; assay: as above; conditions: Fusarium solani, 041324207
Text: as §1

[7] = test system: ten randomly selected isolates of T. tonsurans; assay: Susceptibility of ten T. tonsurans isolates, broth microdilution NCCLS M38-P; conditions: for MIC: Trichophyton tonsurans
Description: (§2) Isolates were tested using the method described in the National Committee for Clinical Laboratory Standards (NCCLS) document M38-P for filamentous fungi, with dermatophyte specific modifications described by Fernández-Torres et al, Current topics in Medical Mycology, 14-19 Feb. 1999.
(§3) Five dermatophyte isolates were, namely; T. rubrum, T. mentagrophytes, T. tonsurans, M. canis and M. gypseum, all of which produce lipases and some, phospholipase. These isolates were tested by the broth microdilution method according to NCCLS document M38-P, for activity against selected antifungal agents. In addition, ten randomly selected isolates of T. tonsurans were also tested. All isolates were maintained on SDA at 28° C. Candida parapsilosis (ATCC 20019) was used as the reference control is organism.
(§4) The microdilution plates used were a single lot of RPMI 1640 basal medium (JRH bioScience Inc. Lenexa, Kans., USA) with L-glutamine and without sodium bicarbonate, buffered to pH 7.0, at 25° C., with 0.165 M (MOPS) morpholinepropanesulfonic acid (Sigma).
(§5) Powdered drugs were dissolved in 100% dimethyl sulfoxide (DMSO), at concentrations 100 times higher than the final test concentration. All compounds were prepared in 100% (DMSO). For ITRA and TRB, two-fold drug dilutions were prepared in 100% DMSO at 100 times the final concentration, followed by further dilution 1:50 in RPMI medium, to yield 2× the final strength required for the test.
(§6) Fungal cultures were subcultured onto Potato Dextrose Agar and grown at 28° C. for 7-10 days. Fungal suspensions were covered with 5 ml of distilled water, and then colonies were scraped off with cotton tipped swabs. The resulting mixture of conidia and hyphae elements was withdrawn, transferred to a sterile tube and then vortexed with glass beads. After the particles settled, the upper homogeneous suspension was collected and its density adjusted by a densitometer to a 0.5 McFarland standard at the wavelength of 530 nm (80-85% transmittance). These stock suspensions were then diluted 1:50 with RPMI medium to obtain final working inoculum concentration ranging from 0.3×10^4 to 9×10^4 CFU/ml. Inoculum quantification was performed by plating 100 μl of the 1:1000 dilution of the adjusted inoculum on SDA plates, incubated at 28° C., and after 7 days of incubation, the colonies were counted.
(§7) Testing was based on NCCLS M38-P document for testing filamentous moulds. Testing was carried out in sterile 96-well flat bottomed microtitre plate. Columns 1 and 3 to 12 were filled with 100 μl of RPMI medium, leaving column 2 unfilled. Columns 1, 2 and 3 were filled with 100 μl of 2× drug concentration. Serial dilutions were then made by transferring 100 μl from column 3 to each column up to column 11, and 100 μl from column 11 was discarded. Column 12 served as drug free growth control. Finally, 100 μl of inoculum suspension was added to all wells except column 1, which acted as sterility control (Columns 1 and 12 served as sterility and growth control respectively). Plates were incubated at 28° C. for 7 days, and read at 3 days and 7 days of incubation. All testing was performed in duplicate, on three separate occasions.
(§8) Growth in microtitre trays were read by visual inspection by using an illuminated-reversed mirror. Growth in each well was compared with the “growth control” drug free well. The MIC end point for all the drugs was chosen to be the first well with 100% growth inhibition (i.e. the lowest drug concentration inhibiting growth).

T. mentagrophytes = assay: Susceptibility of dermatophytes, broth microdilution NCCLS M38-P; conditions: 100% growth inhibition, 28° C.; for MIC: Trichophyton mentagrophytes
Description: as §2, §3, §4, §5, §6, §7, §8

## CCCC[N+](CCCC)(CCCC)CCCCCCCCCCCC[N+](CCCC)(CCCC)CCCC [1,12-Bis-(tributylammonium)dodecane dichloride]
[1]
  MIC: 3.3 µg/mL and 5.5 µM
[2]
  MIC: 3.3 µg/mL and 5.5 µM
[3]
  MIC: 6.7 µg/mL and 11 µM
[4]
  MIC: 13.4 µg/mL and 22 µM
[5]
  MIC: 1.7 µg/mL and 2.8 µM
[6]
  MIC: 3.3 µg/mL and 5.5 µM

## CCCC[N+](CCCC)(CCCC)CCCCCCCCCCCC[N+](CCCC)(CCCC)CCCC [Compound 3, 1,12-bis(tributylammonium)do-decane dibromide]
[7]; T. tonsurans 1
  MIC Range: 1.9 to 3.8 µg/mL
[7]; T. tonsurans 2
  MIC Range: 0.45 to 7.6 µg/mL
[7]; T. tonsurans 4
  MIC Range: 0.45 to 3.8 µg/mL
[7]; T. tonsurans 5
  MIC Range: 0.45 to 7.6 µg/mL
[7]; T. tonsurans 6
  MIC Range: 0.45 to 15.25 µg/mL
[7]; T. tonsurans 7
  MIC Range: 0.45 to 3.8 µg/mL
[7]; T. tonsurans 8
  MIC Range: 0.45 to 3.8 µg/mL
[7]; T. tonsurans 9
  MIC Range: 3.8 to 15.25 µg/mL
[7]; T. tonsurans 10
  MIC Range: 3.8 to 7.6 µg/mL
[7]; T.tonsurans 3
  MIC Range: 0.45 to 3.8 µg/mL
[7]; T. tonsurans 1, read-out: MIC GM
  MIC: 3.02 µg/mL
[7]; T. tonsurans 2, read-out: MIC GM
  MIC: 1.15 µg/mL
[7]; T. tonsurans 2, read-out: MIC Mean
  MIC: 2.83 µg/mL
[7]; T. tonsurans 4, read-out: MIC GM
  MIC: 1.87 µg/mL
[7]; T. tonsurans 4, read-out: MIC Mean
  MIC: 2.68 µg/mL
[7]; T. tonsurans 5, read-out: MIC GM
  MIC: 2.96 µg/mL
[7]; T. tonsurans 5, read-out: MIC Mean
  MIC: 5.22 µg/mL
[7]; T. tonsurans 6, read-out: MIC GM
  MIC: 4.32 µg/mL
[7]; T. tonsurans 6, read-out: MIC Mean
  MIC: 6.94 µg/mL
[7]; T. tonsurans 7, read-out: MIC GM
  MIC: 1.87 µg/mL
[7]; T. tonsurans 7, read-out: MIC Mean
  MIC: 2.68 µg/mL
[7]; T. tonsurans 8, read-out: MIC GM
  MIC: 2.48 µg/mL
[7]; T. tonsurans 8, read-out: MIC Mean
  MIC: 3.13 µg/mL
[7]; T. tonsurans 9, read-out: MIC GM
  MIC: 6.04 µg/mL
[7]; T. tonsurans 9, read-out: MIC Mean
  MIC: 7.61 µg/mL
[7]; T. tonsurans 10, read-out: MIC GM
  MIC: 4.52 µg/mL
[7]; T. tonsurans 10, read-out: MIC Mean
  MIC: 4.75 µg/mL
[7]; T.tonsurans 3, read-out: MIC GM
  MIC: 1.87 µg/mL
[7]; T.tonsurans 3, read-out: MIC Mean
  MIC: 2.68 µg/mL
[7]; read-out: MIC Mean, T. tonsurans 1
  MIC: 3.17 µg/mL
T. mentagrophytes
  MIC Range, T. mentagrophyte: 3.8 µg/mL
T. mentagrophytes; read-out: MIC GM, T. mentagrophyte
  MIC: 3.8 µg/mL
T. mentagrophytes; read-out: MIC Mean, T. mentagrophyte
  MIC: 3.8 µg/mL
